Reference: patent US20220411811A1, “SYNTHETIC TOOLKIT FOR PLANT TRANSFORMATION” (priority 2021, published 2022)

Tested on: A. tumefaciens NTL4
Format: cell-based, Agrobacterium tumefaciens
Details: for highest expression level (green fluorescence intensity, sfgfp reporter): highest induction concentration 10^3 μM; for basal expression level (green fluorescence intensity, sfgfp reporter): lowest induction concentration 10^−3 μM
Experimental: GFP measurement. An inoculum of A. tumefaciens was grown overnight to stationary phase and then transferred to fresh media at a 1:100 dilution. The new inocula were added with inducers to a final concentration of 1×10^−3 to 1×10^3 μmol/ml when their optical density at 600 nm (OD600) reached 0.5. After 6 h of incubation, cells were collected and resuspended in 1×PBS buffer. Then 100 μL of suitably diluted cultures were added into 96-well microtiter plates. OD600 and relative green fluorescence were measured by a BioTek® microplate reader H1. Congo red plate assay. The dye was dissolved in ddH2O at 20 mg ml^−1 and passed through 0.2 μm filters immediately. Four ml of filtered Congo Red was added per L (final concentration: 80 μg/ml) to generate LB-CR agar medium. The overnight cultured cultures were diluted to an OD600 of 1.0. 10 μl cultures were plated on LB-CR agar with appropriate antibiotics, followed by incubation at 30° C. for 24 hours.
A reliable induction system is required to achieve precise control of gene expression. […] An ori from the broad host-range plasmid pBBR1, which propagates in both E. coli and A. tumefaciens, was utilized for the origin of replication (Szpirer et al., J Bacteriol. 183:2101-2110, 2001). To evaluate the performance of these inducible systems, a green fluorescence protein gene (sfgfp) was utilized as a reporter gene, and placed under the control of the corresponding inducible promoters, Ptac, Pcym, Pvan, PBAD, Pug and Psal, respectively. The repressor genes of the inducible systems (lacI, cymR, vanR, araE, ttgR and nahR) were driven by a common constitutive promoter (Pcon). The resulting inducible “expression circuits” were transformed into A. tumefaciens NTL4.
To evaluate these induction systems, green fluorescence intensities of cells transformed with the plasmids were measured at various concentrations of inducers, ranging from 10^−3 to 10^3 μM.

Row | SMILES | highest expression level (green fluorescence intensity, sfgfp reporter) | basal expression level (green fluorescence intensity, sfgfp reporter)
1 | O=C[C@@H](O)[C@H](O)[C@H](O)CO [Ara, arabinose] | 1.8×10^3 | 5.5×10^2
2 | CC(C)c1ccc(C(=O)O)cc1 [Cum, cumic acid] | 3×10^4 | 1.4×10^2
3 | CC(C)S[C@@H]1O[C@H](CO)[C@H](O)[C@H](O)[C@H]1O [IPTG, β-d-1-thiogalactopyranoside] | 5.2×10^5 | 6.6×10^4
4 | O=C1C[C@@H](c2ccc(O)cc2)Oc2cc(O)cc(O)c21 [Nar, naringenin] | 1.2×10^4 | 1.8×10^2
5 | COc1cc(C(=O)O)ccc1O [Van, vanillic acid] | 7.7×10^4 | 3.1×10^2
